In brackets after ≈: the same amount, converted by molar mass. Where two headings read alike, the source gives them in different places. *1 amine or outer side, *2 acyl side, *3 side chain or, on linkers, in order; H or OH if unused. Where a SMILES comes first, the peptide text is derived from it. [ ]: non-standard residue; d: D form. The star is where a group is joined. Ethylenediamine = C(CN[*:2])N[*:1]; βNA = c1ccc2cc(N*)ccc2c1; Cbz = O=C(OCc1ccccc1)*; OBn = c1ccc(CO*)cc1
Key:
[1] = tested on: Escherichia coli ATCC 25922
[2] = tested on: MRSE ATCC 27626
[3] = tested on: Staphylococcus aureus ATCC 25923
[4] = tested on: MRSA ATCC 33591
[5] = tested on: Escherichia coli ATCC 25922; remark: listed apart in the source
[6] = tested on: Staphylococcus aureus ATCC 25923; remark: listed apart in the source
[7] = Table 1, peptide amides, value outside brackets

Compound	MIC E. coli ([1]; ATCC 25922)	MIC S. aureus ([3]; ATCC 25923)	MBC E. coli ([5]; ATCC 25922)	MBC S. aureus ([6]; ATCC 25923)	further results
C[C@H](N)C(=O)N[C@@H](CCCNC(=N)N)C(=O)OCc1ccc(-c2ccccc2)cc1 [AROBip]	–	–	–	–	Minimum inhibitory concentration E. coli ([1]; ATCC 25922): 300 µg/mL (≈ 729 µM); Minimum inhibitory concentration MRSE ([2]; ATCC 27626): 25 µg/mL (≈ 60.8 µM); Minimum inhibitory concentration S. aureus ([3]; ATCC 25923): 100 µg/mL (≈ 243 µM); Minimum inhibitory concentration MRSA ([4]; ATCC 33591): 37.5 µg/mL (≈ 91.1 µM)
N=C(N)NCCC[C@H](NC(=O)[C@@H](N)Cc1ccc(-c2ccccc2)cc1)C(=O)OCc1ccc(-c2ccccc2)cc1 [BipROBip]	–	–	–	–	Minimum inhibitory concentration E. coli ([1]; ATCC 25922): 50 µg/mL (≈ 88.7 µM); Minimum inhibitory concentration MRSE ([2]; ATCC 27626): 5.0 µg/mL (≈ 8.87 µM); Minimum inhibitory concentration S. aureus ([3]; ATCC 25923): 5.0 µg/mL (≈ 8.87 µM); Minimum inhibitory concentration MRSA ([4]; ATCC 33591): 5.0 µg/mL (≈ 8.87 µM)
N=C(N)NCCC[C@H](NC(=O)C1CCCCC1)C(=O)N[C@@H](Cc1c[nH]c2ccccc12)C(=O)OCc1ccccc1 [Chx RW OBz, Chx-Arg-Trp-OBzl]	200 (>200) μg/ml	75 (75) μg/ml	200 (>200) μg/ml	75 (75) μg/ml	–
COC(=O)[C@H](CCCNC(=N)N)NC(=O)[C@H](Cc1c[nH]c2ccccc12)NC(=O)C1CCCCC1 [Chx WR OMe, Chx-Trp-Arg-OMe]	>200 (>200) μg/ml	>200 (>200) μg/ml	>200 (>200) μg/ml	>200 (>200) μg/ml	–
N=C(N)NCCC[C@H](NC(=O)[C@@H](N)Cc1ccccc1)C(=O)OCc1ccc(-c2ccccc2)cc1 [FROBip]	–	–	–	–	Minimum inhibitory concentration E. coli ([1]; ATCC 25922): 100 µg/mL (≈ 205 µM); Minimum inhibitory concentration MRSE ([2]; ATCC 27626): 5 µg/mL (≈ 10.3 µM); Minimum inhibitory concentration S. aureus ([3]; ATCC 25923): 12.5 µg/mL (≈ 25.6 µM); Minimum inhibitory concentration MRSA ([4]; ATCC 33591): 12.5 µg/mL (≈ 25.6 µM)
COC(=O)[C@H](CCCNC(=N)N)NC(=O)[C@H](Cc1c[nH]c2ccccc12)NC(=O)Cc1c[nH]c2ccccc12 [Ind WR OMe, Ind-Trp-Arg-OMe]	>200 (>200) μg/ml	>200 (>200) μg/ml	>200 (>200) μg/ml	>200 (>200) μg/ml	–
NCCCC[C@H](N)C(=O)N[C@@H](Cc1ccccc1)C(=O)OCc1ccccc1 [KF-Obzl]	>300 µg/mL	300 µg/mL (≈ 782 µM)	–	–	MIC MRSE ([2]; ATCC 27626): 150 µg/mL (≈ 391 µM); MIC MRSA ([4]; ATCC 33591): 300 µg/mL (≈ 782 µM)
N=C(N)NCCC[C@H](NC(=O)[C@H](CCCNC(=N)N)NC(=O)[C@@H](N)CCCNC(=N)N)C(=O)N[C@@H](Cc1c[nH]c2ccccc12)C(=O)N[C@@H](Cc1c[nH]c2ccccc12)C(=O)N[C@@H](Cc1c[nH]c2ccccc12)C(N)=O [RRRWWW] (H-RRRWWW-NH2)	–	–	20 µg/mL (≈ 19.2 µM)	–	–
N=C(N)NCCC[C@H](NC(=O)[C@H](Cc1c[nH]c2ccccc12)NC(=O)[C@H](CCCNC(=N)N)NC(=O)[C@H](Cc1c[nH]c2ccccc12)NC(=O)[C@@H](N)CCCNC(=N)N)C(=O)N[C@@H](Cc1c[nH]c2ccccc12)C(N)=O [RWRWRW] (H-RWRWRW-NH2)	–	–	20 µg/mL (≈ 19.2 µM)	10 µg/mL (≈ 9.58 µM)	–
N=C(N)NCCC[C@H](NC(=O)[C@H](Cc1c[nH]c2ccccc12)NC(=O)[C@H](Cc1c[nH]c2ccccc12)NC(=O)[C@@H](N)CCCNC(=N)N)C(N)=O [RWWR] (H-RWWR-NH2; N-terminus assumed)	>100 µg/mL	10 µg/mL (≈ 14.2 µM)	>100 µg/mL	>100 µg/mL	–
N=C(N)NCCC[C@H](NC(=O)[C@H](CCCNC(=N)N)NC(=O)[C@H](Cc1c[nH]c2ccccc12)NC(=O)[C@H](Cc1c[nH]c2ccccc12)NC(=O)[C@H](Cc1c[nH]c2ccccc12)NC(=O)[C@@H](N)CCCNC(=N)N)C(N)=O [RWWWRR] (H-RWWWRR-NH2)	10 µg/mL (≈ 9.58 µM)	7.5 µg/mL (≈ 7.18 µM)	15 µg/mL (≈ 14.4 µM)	10 µg/mL (≈ 9.58 µM)	–
N=C(N)NCCC[C@H](N)C(=O)N[C@@H](Cc1c[nH]c2ccccc12)C(=O)Nc1ccc2ccccc2c1 [RWβNA] (H-Arg-Trp-βNA)	–	–	–	–	Minimum inhibitory concentration E. coli ([1]; Table 9): 100 µg/mL (≈ 206 µM); Minimum inhibitory concentration MRSE ([2]; Table 9): 12.5 µg/mL (≈ 25.7 µM); Minimum inhibitory concentration S. aureus ([3]; Table 9): 12.5 µg/mL (≈ 25.7 µM); Minimum inhibitory concentration MRSA ([4]; Table 9): 12.5 µg/mL (≈ 25.7 µM)
N=C(N)NCCC[C@H](NC(=O)[C@H](Cc1c[nH]c2ccccc12)NC(=O)[C@H](CCCNC(=N)N)NC(=O)[C@@H](N)Cc1c[nH]c2ccccc12)C(=O)N[C@@H](Cc1c[nH]c2ccccc12)C(N)=O [WRWRW] (H-WRWRW-NH2)	–	–	50 µg/mL (≈ 56.3 µM)	20 (20) μg/ml	–
N=C(N)NCCC[C@H](NC(=O)[C@H](Cc1c[nH]c2ccccc12)NC(=O)[C@H](CCCNC(=N)N)NC(=O)[C@@H](N)Cc1c[nH]c2ccccc12)C(N)=O [WRWR] (H-WRWR-NH2; N-terminus assumed)	–	–	–	–	MBC E. coli ([5]; Table 1, peptide amides): >100 µg/mL; MIC E. coli [1, 7]: >100 µg/mL; MIC S. aureus [3, 7]: 100 µg/mL (≈ 142 µM); MBC S. aureus [6, 7]: >100 µg/mL
N=C(N)NCCC[C@H](NC(=O)[C@H](CCCNC(=N)N)NC(=O)[C@H](CCCNC(=N)N)NC(=O)[C@H](Cc1c[nH]c2ccccc12)NC(=O)[C@@H](N)Cc1c[nH]c2ccccc12)C(=O)N[C@@H](Cc1c[nH]c2ccccc12)C(N)=O [WWRRRW] (H-WWRRRW-NH2)	20 (20) μg/ml	–	20 µg/mL (≈ 19.2 µM)	–	–

The next lines start with results.

MIC E. coli ([1]; ATCC 25922)	MIC S. aureus ([3]; ATCC 25923)	Compound	MBC E. coli ([5]; ATCC 25922)	MBC S. aureus ([6]; ATCC 25923)	further results
>200 (>200) μg/ml	75 (75) μg/ml	N=C(N)NCCC[C@H](NC(=O)Cc1c[nH]c2ccccc12)C(=O)N[C@@H](Cc1c[nH]c2ccccc12)C(=O)NCCNC(=O)OCc1ccccc1 [Ind RW DaeZ, Ind-Arg-Trp-Dae-Z]	>200 (>200) μg/ml	75 (75) μg/ml	–
>200 (>200) μg/ml	20 (20) μg/ml	N=C(N)NCCC[C@H](NC(=O)Cc1c[nH]c2ccccc12)C(=O)N[C@@H](Cc1c[nH]c2ccccc12)C(=O)OCc1ccccc1 [Ind RW OBz, Ind-Arg-Trp-OBzl]	>200 (>200) μg/ml	20 (20) μg/ml	–
>300 µg/mL	37.5 µg/mL (≈ 88.8 µM)	NCCCC[C@H](N)C(=O)N[C@@H](Cc1c[nH]c2ccccc12)C(=O)OCc1ccccc1 [KW-Obzl] (H-Lys-Trp-OBn; N-terminus assumed)	–	–	Minimum inhibitory concentration E. coli ([1]; ATCC 25922): >300 µg/mL; MIC MRSE ([2]; ATCC 27626): 25 µg/mL (≈ 59.2 µM); Minimum inhibitory concentration MRSE ([2]; ATCC 27626): 25 µg/mL (≈ 59.2 µM); Minimum inhibitory concentration S. aureus ([3]; ATCC 25923): 37.5 µg/mL (≈ 88.8 µM); MIC MRSA ([4]; ATCC 33591): 37.5 µg/mL (≈ 88.8 µM); Minimum inhibitory concentration MRSA ([4]; ATCC 33591): 37.5 µg/mL (≈ 88.8 µM)
>200 (>200) μg/ml	50 µg/mL (≈ 93.2 µM)	N=C(N)NCCC[C@H](N)C(=O)N[C@@H](Cc1c[nH]c2ccccc12)C(=O)NCCNC(=O)OCc1ccccc1 [RW DaeZ, H-Arg-Trp-Dae-Z] (H-Arg-Trp-{Ethylenediamine-Cbz})	>200 (>200) μg/ml	75 µg/mL (≈ 140 µM)	–
>300.0 µg/mL	>300.0 µg/mL	COC(=O)[C@H](Cc1c[nH]c2ccccc12)NC(=O)[C@@H](N)CCCNC(=N)N [RW-OMe] (H-Arg-Trp-OMe; N-terminus assumed)	–	–	MIC MRSE ([2]; ATCC 27626): 200.0 µg/mL (≈ 534 µM); MIC MRSA ([4]; ATCC 33591): >300.0 µg/mL
–	20 µg/mL (≈ 23.3 µM)	N=C(N)NCCC[C@H](NC(=O)[C@H](Cc1c[nH]c2ccccc12)NC(=O)[C@H](CCCNC(=N)N)NC(=O)[C@H](Cc1c[nH]c2ccccc12)NC(=O)[C@@H](N)CCCNC(=N)N)C(N)=O [RWRWR] (H-RWRWR-NH2)	100 µg/mL (≈ 117 µM)	20 µg/mL (≈ 23.3 µM)	–
>100 µg/mL	>100 µg/mL	N=C(N)NCCC[C@H](NC(=O)[C@H](Cc1c[nH]c2ccccc12)NC(=O)[C@@H](N)CCCNC(=N)N)C(N)=O [RWR] (H-Arg-Trp-Arg-NH2; N-terminus assumed)	>100 µg/mL	>100 µg/mL	–
>300 µg/mL	37.5 µg/mL (≈ 83.2 µM)	N=C(N)NCCC[C@H](N)C(=O)N[C@H](Cc1c[nH]c2ccccc12)C(=O)OCc1ccccc1 [Rw-OBzl] (H-Arg-[dW]-OBn; N-terminus assumed)	–	–	MIC MRSE ([2]; ATCC 27626): 25 µg/mL (≈ 55.5 µM); MIC MRSA ([4]; ATCC 33591): 37.5 µg/mL (≈ 83.2 µM)
>100 µg/mL	75 to 100 µg/mL	N=C(N)NCCC[C@H](NC(=O)[C@H](CCCNC(=N)N)NC(=O)[C@@H](N)Cc1c[nH]c2ccccc12)C(=O)N[C@@H](Cc1c[nH]c2ccccc12)C(N)=O [WRRW] (H-WRRW-NH2; N-terminus assumed)	>100 µg/mL	>100 µg/mL	–
>100 µg/mL	75 µg/mL (≈ 137 µM)	N=C(N)NCCC[C@H](NC(=O)[C@@H](N)Cc1c[nH]c2ccccc12)C(=O)N[C@@H](Cc1c[nH]c2ccccc12)C(N)=O [WRW] (H-Trp-Arg-Trp-NH2; N-terminus assumed)	>100 µg/mL	100 µg/mL (≈ 183 µM)	–

Reference: patent US9115169B2, “Method of treating tumors” (Lytix Biopharma AS, priority 2000, dated 2015)
